In patent US20250340561A1, “QUINAZOLINE COMPOUND FOR INDUCING DEGRADATION OF G12D MUTANT KRAS PROTEIN” (Astellas Pharma Inc., priority 2021, published 2025):

Target: T1, KRAS G12D (Homo sapiens, UniProt P01116, G12D)
T1 construct: host or cells: AsPC-1 human pancreatic cancer cells
Assay: Test Example 1-2: KRAS degradation action in AsPC-1, Cell ELISA
Type: cell-based
Settings: AsPC-1 cells, overnight treatment, corrected with β-actin, 0% = 10 μM Example No. 26 (Example No. 8 for Example Nos. 74 and 75)
Procedure: Test Example 1-2: Evaluation of KRAS Degradation Action on Human G12D Mutant KRAS-Positive Pancreatic Cancer Line AsPC-1
The KRAS degradation action of test compounds was evaluated by measuring the expression levels of KRAS G12D by Cell ELISA.
[…] As for the cell culture conditions, a RPMI 1640 medium containing 10% fetal bovine serum was used in the presence of 5% CO2 at 37° C. The next day, the test compounds (10 points having final concentrations in the range of 10 μM to 0.3 nM), the compound of Example No. 26 (Example No. 8 for Example Nos. 74 and 75) of a final concentration of 10 μM as a positive control and DMSO, which was the solvent for the test compounds, as a negative control were diluted 500-fold with a fresh medium and were added at 20 μL per well. The cells were cultured overnight.
The next day, the culture supernatant was removed, and 4% paraformaldehyde phosphate buffer (from FUJIFILM Wako Pure Chemical Corporation) was added at 20 μL per well. The plate was allowed to stand for 30 minutes at room temperature to thus immobilize the cells. Then, the supernatant was removed, and 0.1% Triton X-100 (from Amersham Biosciences)-containing PBS was added at 20 μL per well. After allowing to stand for 10 minutes at room temperature, the supernatant was removed. PBS was added at 25 μL per well, and the supernatant was removed to thus wash each well. The washing was performed twice in total. Next, the supernatant was removed, and 0.5% sodium dodecyl sulfate (SDS; from Invitrogen)-containing PBS was added at 20 μL per well. After allowing to stand at room temperature for 10 minutes, the supernatant was removed by centrifugation (using a centrifugal dehydrator machine, the supernatant was removed by the same method hereinafter). PBS was added at 25 μL per well, and the supernatant was removed to thus wash each well. The washing was performed twice in total. The supernatant was removed by centrifugation, and a blocking solution (Intercept Blocking Buffer) was added at 20 μL per well. After allowing to stand for 30 minutes at room temperature, the supernatant was removed by centrifugation, and a solution obtained by diluting an anti-Ras (G12D Mutant Specific) antibody and an anti-3-actin antibody 1,000-fold with a blocking solution was added at 20 μL per well as a primary antibody. The plate was allowed to stand overnight at 4° C.
The next day, the plate was centrifuged to remove the supernatant. PBS was added at […], and the supernatant was removed to thus wash each well. The washing was performed twice in total. The supernatant was removed by centrifugation, and a solution obtained by diluting Donkey anti-Mouse IgG H&L (TRDye 680RD) (from Li—COR Biosciences) and Goat anti-Rabbit IgG H&L (IRDye 800CW) (from Li—COR Biosciences) 1,000-fold with a blocking solution was added at 20 μL per well as a secondary antibody. After allowing to stand for 1 hour at room temperature, the supernatant was removed. PBS was added at 25 μL per well, and the supernatant was removed to thus wash each well. The washing was performed twice in total. After removing the supernatant by centrifuging the plate, the plate was dried as it was with air at room temperature for 2 hours or more, and the 700-nm and 800-nm fluorescent signals were measured with Aerius (from LI-COR Biosciences).
With the signaling value at the time of addition of DMSO corrected with the signaling value of β-actin taken as 100% and with the signaling value at the time of addition of 10 μM of the compound of Example No. 26 taken as 0%, the 50% degradation values (DC50) of the amounts of KRAS were calculated by Sigmoid-Emax model nonlinear regression analysis. The molecular weights of the test compounds were calculated as the molecular weights of the trihydrochloride for Example No. 30, the tetrahydrochloride for Example No. 46 and the free forms forming no salt for the remaining Example Nos. The results for some test compounds of the formula (I) are shown in Table 2.

T1 sequence (P01116 1-188 isoform P01116-2 G12D): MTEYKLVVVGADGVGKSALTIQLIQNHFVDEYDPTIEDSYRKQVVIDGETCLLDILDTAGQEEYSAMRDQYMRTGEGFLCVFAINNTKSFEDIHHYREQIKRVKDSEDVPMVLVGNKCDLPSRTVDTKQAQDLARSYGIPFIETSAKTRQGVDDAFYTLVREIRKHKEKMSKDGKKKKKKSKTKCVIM

Cc1ncsc1-c1ccc([C@H](CO)NC(=O)[C@@H]2C[C@@H](O)CN2C(=O)[C@H](C(C)C)n2cc(-c3ccc(COc4c(-c5c(C)c(F)cc6[nH]ncc56)c(C5CC5)cc5c(N6C[C@@H]7C[C@H]6CN7)nc(OCC67CCCN6CCC7)nc45)cc3)nn2)cc1 [Example 44] gave a DC50 of 111 nM.
For CO[C@@H](C)COc1nc(N2C[C@@H]3C[C@H]2CN3)c2cc(C3CC3)c(-c3c(C)c(F)cc4[nH]ncc34)c(OCc3ccc(-c4cn([C@H](C(=O)N5C[C@H](O)C[C@H]5C(=O)N[C@@H](CO)c5ccc(F)cc5)C(C)C)nn4)cc3)c2n1 [Example 58], the DC50 was 37 nM.
With CO[C@@H](C)[C@H](C)Oc1nc(N2C[C@@H]3C[C@H]2CN3)c2cc(C3CC3)c(-c3c(C)c(F)cc4[nH]ncc34)c(OCc3ccc(-c4cn([C@H](C(=O)N5C[C@H](O)C[C@H]5C(=O)N[C@@H](CO)c5ccc(-c6scnc6C)cc5)C(C)C)nn4)cc3)c2n1 [Example 41] the DC50 was 9 nM.
With Cc1ncsc1-c1ccc([C@H](CO)NC(=O)[C@@H]2C[C@@H](O)CN2C(=O)[C@H](C(C)C)n2cc(-c3ccc(COc4c(-c5c(C)c(F)cc6[nH]ncc56)c(C5CC5)cc5c(N6C[C@@H]7C[C@H]6CN7)nc(OC[C@H]6CCCN6C)nc45)cc3)nn2)cc1 [Example 60] the DC50 was 102 nM.
Cc1ncsc1-c1ccc([C@@H](CO)NC(=O)[C@@H]2C[C@@H](O)CN2C(=O)[C@H](C(C)C)n2cc(-c3ccc(COc4c(-c5c(C)c(F)cc6[nH]ncc56)c(C5CC5)cc5c(N6C[C@@H]7C[C@H]6CN7)nc(OC6CCOCC6)nc45)cc3)nn2)cc1 [Example 68] gave a DC50 of 1390 nM.
Cc1c(F)cc2[nH]ncc2c1-c1c(C2CC2)cc2c(N3C[C@@H]4C[C@H]3CN4)nc(OC3CCOCC3)nc2c1OCc1ccc(-c2cn([C@H](C(=O)N3C[C@H](O)C[C@H]3C(=O)N[C@@H](CO)c3ccc(-n4ccnc4C)cc3)C(C)C)nn2)cc1 [Example 69] gave a DC50 of 31 nM.
In the case of Cc1ncsc1-c1ccc([C@H](CO)NC(=O)[C@@H]2C[C@@H](O)CN2C(=O)[C@H](C(C)C)n2cc(-c3ccc(COc4c(-c5c(C)c(F)cc6[nH]ncc56)c(C5CC5)cc5c(N6C[C@@H]7C[C@H]6CN7)nc(OC[C@H]6CCOC6)nc45)cc3)nn2)cc1 [Example 51], the DC50 is reported as 11 nM.
Cc1ncsc1-c1ccc([C@H](CO)NC(=O)[C@@H]2C[C@@H](O)CN2C(=O)[C@H](C(C)C)n2cc(-c3ccc(COc4c(-c5c(C)c(F)cc6[nH]ncc56)c(C5CC5)cc5c(N6C[C@@H]7C[C@H]6CN7)nc(O[C@H]6CCN(CC(F)F)C6)nc45)cc3)nn2)cc1 [Example 33] showed a DC50 of 30 nM.
With Cc1ncsc1-c1ccc([C@H](CO)NC(=O)[C@@H]2C[C@@H](O)CN2C(=O)[C@H](C(C)C)n2cc(-c3ccc(COc4c(-c5c(C)c(F)cc6[nH]ncc56)c(C5CC5)cc5c(N6C[C@@H]7C[C@H]6CN7)nc(O[C@H](C)CN6CCOCC6)nc45)cc3)nn2)cc1 [Example 45] the DC50 was 15 nM.
With COC[C@@H](C)Oc1nc(N2C[C@@H]3C[C@H]2CN3)c2cc(C3CC3)c(-c3c(C)c(F)cc4[nH]ncc34)c(OCc3ccc(-c4cn([C@H](C(=O)N5C[C@H](O)C[C@H]5C(=O)N[C@@H](CO)c5ccc(-c6scnc6C)cc5)C(C)C)nn4)cc3)c2n1 [Example 40] the DC50 was 5 nM.
With CO[C@@H](C)COc1nc(N2C[C@@H]3C[C@H]2CN3)c2cc(C3CC3)c(-c3c(C)c(F)cc4[nH]ncc34)c(OCc3ccc(-c4cn([C@H](C(=O)N5C[C@H](O)C[C@H]5C(=O)N[C@@H](CO)c5ccc(N6CCOC6=O)cc5)C(C)C)nn4)cc3)c2n1 [Example 59] the DC50 was 45 nM.
Work on Cc1ncsc1-c1ccc([C@H](CO)NC(=O)[C@@H]2C[C@@H](O)CN2C(=O)[C@H](C(C)C)n2cc(-c3ccc(COc4c(-c5c(C)c(F)cc6[nH]ncc56)c(C5CC5)cc5c(N6C[C@@H]7C[C@H]6CN7)nc(OC[C@H](C)N6CCCC6)nc45)cc3)nn2)cc1 [Example 64] yielded a DC50 of 48 nM.
Compound CO[C@H](C)COc1nc(N2C[C@@H]3C[C@H]2CN3)c2cc(C3CC3)c(-c3c(C)c(F)cc4[nH]ncc34)c(OCc3ccc(-c4cn([C@H](C(=O)N5C[C@H](O)C[C@H]5C(=O)N[C@@H](CO)c5ccc(-c6scnc6C)cc5)C(C)C)nn4)cc3)c2n1 [Example 47] has a DC50 of 13 nM.
With Cc1c(F)cc2[nH]ncc2c1-c1c(C2CC2)cc2c(N3C[C@@H]4C[C@H]3CN4)nc(OC3CCOCC3)nc2c1OCc1ccc(-c2cn([C@H](C(=O)N3C[C@H](O)C[C@H]3C(=O)N[C@@H](CO)c3cccc(F)c3)C(C)C)nn2)cc1 [Example 63] the DC50 was 70 nM.
For Cc1c(F)cc2[nH]ncc2c1-c1c(C2CC2)cc2c(N3C[C@@H]4C[C@H]3CN4)nc(OC3CCOCC3)nc2c1OCc1ccc(-c2cn([C@H](C(=O)N3C[C@H](O)C[C@H]3C(=O)N[C@@H](CO)c3cccc(S(C)(=O)=O)c3)C(C)C)nn2)cc1 [Example 67], the DC50 was 840 nM.
CC[C@@H](C)Oc1nc(N2C[C@@H]3C[C@H]2CN3)c2cc(C3CC3)c(-c3c(C)c(F)cc4[nH]ncc34)c(OCc3ccc(-c4cn([C@H](C(=O)N5C[C@H](O)C[C@H]5C(=O)N[C@@H](CO)c5ccc(-c6scnc6C)cc5)C(C)C)nn4)cc3)c2n1 [Example 43] was tested, and the DC50 was 10 nM.
CO[C@H](C)[C@@H](C)Oc1nc(N2C[C@@H]3C[C@H]2CN3)c2cc(C3CC3)c(-c3c(C)c(F)cc4[nH]ncc34)c(OCc3ccc(-c4cn([C@H](C(=O)N5C[C@H](O)C[C@H]5C(=O)N[C@@H](CO)c5ccc(-c6scnc6C)cc5)C(C)C)nn4)cc3)c2n1 [Example 39] gave a DC50 of 6 nM.
For Cc1ncsc1-c1ccc([C@H](CO)NC(=O)[C@@H]2C[C@@H](O)CN2C(=O)[C@H](C(C)C)n2cc(-c3ccc(COc4c(-c5c(C)c(F)cc6[nH]ncc56)c(C5CC5)cc5c(N6C[C@@H]7C[C@H]6CN7)nc(OCC6(CO)CC6)nc45)cc3)nn2)cc1 [Example 61], the DC50 was 21 nM.
Work on CO[C@@H](C)COc1nc(N2C[C@@H]3C[C@H]2CN3)c2cc(C3CC3)c(-c3c(C)c(F)cc4[nH]ncc34)c(OCc3ccc(-c4cn([C@H](C(=O)N5C[C@H](O)C[C@H]5C(=O)N[C@@H](CO)c5ccc(-n6ccnc6C)cc5)C(C)C)nn4)cc3)c2n1 [Example 71] yielded a DC50 of 35 nM.
Cc1ncsc1-c1ccc([C@H](CO)NC(=O)[C@@H]2C[C@@H](O)CN2C(=O)[C@H](C(C)C)n2cc(-c3ccc(COc4c(-c5c(C)c(F)cc6[nH]ncc56)c(C5CC5)cc5c(N6C[C@@H]7C[C@H]6CN7)nc(OCC6(CO)CCOCC6)nc45)cc3)nn2)cc1 (atropisomer, axis not shown) [Example 36] was tested, and the DC50 was 17 nM.
CO[C@@H](C)COc1nc(N2C[C@@H]3C[C@H]2CN3)c2cc(C3CC3)c(-c3c(C)c(F)cc4[nH]ncc34)c(OCc3ccc(-c4cn([C@H](C(=O)N5C[C@H](O)C[C@H]5C(=O)N[C@@H](CO)c5ccc(-c6scnc6C)cc5)C(C)C)nn4)cc3)c2n1 [Example 48] showed a DC50 of 4 nM.
Cc1ncsc1-c1ccc([C@H](CO)NC(=O)[C@@H]2C[C@@H](O)CN2C(=O)[C@H](C(C)C)n2cc(-c3ccc(COc4c(-c5c(C)c(F)cc6[nH]ncc56)c(C5CC5)cc5c(N6C[C@@H]7C[C@H]6CN7)nc(OC[C@H]6CCOC6)nc45)cc3)nn2)cc1 [Example 52] gave a DC50 of 10 nM.
Cc1ncsc1-c1ccc([C@H](CO)NC(=O)[C@@H]2C[C@@H](O)CN2C(=O)[C@H](C(C)C)n2cc(-c3ccc(COc4c(-c5c(C)c(F)cc6[nH]ncc56)c(C5CC5)cc5c(N6C[C@@H]7C[C@H]6CN7)nc(OC[C@@H]6CCOC6)nc45)cc3)nn2)cc1 [Example 50] was tested, and the DC50 was 11 nM.
With Cc1ncsc1-c1ccc([C@H](CO)NC(=O)[C@@H]2C[C@@H](O)CN2C(=O)[C@H](C(C)C)n2cc(-c3ccc(COc4c(-c5c(C)c(F)cc6[nH]ncc56)c(C5CC5)cc5c(N6C[C@@H]7C[C@H]6CN7)nc(O[C@@H]6CCN(CC(F)F)C6)nc45)cc3)nn2)cc1 [Example 34] the DC50 was 24 nM.
